Laboratory results published in ChEMBL document CHEMBL1201862, “PubChem BioAssay data set” (2004).
Active and inactive are the calls of the source.

Assays:
MDA-MB-435 = test: cells; type: functional, cell-based; settings: Homo sapiens
cells = type: functional, cell-based; settings: PPC-1
[1] = target: DNA damage-inducible transcript 3 protein (Mus musculus, UniProt P35639); type: functional, Cricetulus griseus
Coagulation factor XII = Coagulation factor XII (Homo sapiens, UniProt P00748); type: functional;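 note: activated factor XIIa alpha cleaving a fluorogenic AMC peptide substrate; inhibitor potency from loss of enzyme activity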
[2] = protection from phage-mediated lysis, alamar blue read-out – E. coli UTI89, K1F phage, bacterial capsule biogenesis inhibitors (AID 488966); type: functional
Melanocortin receptor 4 = Melanocortin receptor 4 (Homo sapiens, UniProt P32245); type: functional, cell-based;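 note: Cell-based assay with luminescence read-out, confirmatory dose-response testing for agonist activity of biased ligands at MC4R; human U2OS cells with tagged receptor and beta-arrestin; potency of agonists that increase receptor coupling to beta-arrestin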
[3] = Intein inhibitors as potential Tuberculosis drugs, a cytotoxicity screen. [Related pubchem assays (depositor defined):AID2221, AID2223, AID434968, AID435010, AID449749, AID449750, AID489010]; type: functional
Protein RecA = target: T1, Protein RecA (Mycobacterium tuberculosis, UniProt P9WHJ3); test: Fluorescence Cell-Free Homogeneous Dose Retest to Identify Inhibitors of RecA-Intein Splicing Activity. [Related pubchem assays (depositor defined):AID2097, AID2223, AID489010, AID492950]; type: functional
T1 sequence (P9WHJ3 whole entry): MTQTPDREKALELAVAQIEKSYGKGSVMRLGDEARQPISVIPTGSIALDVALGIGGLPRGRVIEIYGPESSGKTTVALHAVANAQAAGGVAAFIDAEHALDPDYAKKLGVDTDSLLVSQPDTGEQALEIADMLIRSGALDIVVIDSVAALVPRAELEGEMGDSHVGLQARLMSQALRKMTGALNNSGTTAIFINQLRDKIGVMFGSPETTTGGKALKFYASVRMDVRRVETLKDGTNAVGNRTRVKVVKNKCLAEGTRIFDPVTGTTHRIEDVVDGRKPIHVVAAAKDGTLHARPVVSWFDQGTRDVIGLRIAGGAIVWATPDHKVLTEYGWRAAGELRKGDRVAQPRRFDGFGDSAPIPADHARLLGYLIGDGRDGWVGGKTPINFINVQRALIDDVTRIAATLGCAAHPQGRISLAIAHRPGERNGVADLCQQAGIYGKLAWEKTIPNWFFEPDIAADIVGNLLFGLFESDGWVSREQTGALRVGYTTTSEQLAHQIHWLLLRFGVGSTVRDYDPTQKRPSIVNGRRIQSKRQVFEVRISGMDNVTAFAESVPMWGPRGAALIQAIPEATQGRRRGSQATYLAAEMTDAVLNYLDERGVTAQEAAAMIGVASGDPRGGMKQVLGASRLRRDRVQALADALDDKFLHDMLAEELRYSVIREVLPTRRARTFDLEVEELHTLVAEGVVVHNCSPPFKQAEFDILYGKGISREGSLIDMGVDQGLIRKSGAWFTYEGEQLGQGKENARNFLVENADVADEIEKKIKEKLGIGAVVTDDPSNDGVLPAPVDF

[4] = target: T2, Replicative DNA helicase DnaB (Mycobacterium tuberculosis, UniProt P9WMR3); test: DnaB intein splicing inhibitors, dose response, biochemical, cell-free fluorescence (AID 449749); type: functional
T2 sequence (P9WMR3 whole entry): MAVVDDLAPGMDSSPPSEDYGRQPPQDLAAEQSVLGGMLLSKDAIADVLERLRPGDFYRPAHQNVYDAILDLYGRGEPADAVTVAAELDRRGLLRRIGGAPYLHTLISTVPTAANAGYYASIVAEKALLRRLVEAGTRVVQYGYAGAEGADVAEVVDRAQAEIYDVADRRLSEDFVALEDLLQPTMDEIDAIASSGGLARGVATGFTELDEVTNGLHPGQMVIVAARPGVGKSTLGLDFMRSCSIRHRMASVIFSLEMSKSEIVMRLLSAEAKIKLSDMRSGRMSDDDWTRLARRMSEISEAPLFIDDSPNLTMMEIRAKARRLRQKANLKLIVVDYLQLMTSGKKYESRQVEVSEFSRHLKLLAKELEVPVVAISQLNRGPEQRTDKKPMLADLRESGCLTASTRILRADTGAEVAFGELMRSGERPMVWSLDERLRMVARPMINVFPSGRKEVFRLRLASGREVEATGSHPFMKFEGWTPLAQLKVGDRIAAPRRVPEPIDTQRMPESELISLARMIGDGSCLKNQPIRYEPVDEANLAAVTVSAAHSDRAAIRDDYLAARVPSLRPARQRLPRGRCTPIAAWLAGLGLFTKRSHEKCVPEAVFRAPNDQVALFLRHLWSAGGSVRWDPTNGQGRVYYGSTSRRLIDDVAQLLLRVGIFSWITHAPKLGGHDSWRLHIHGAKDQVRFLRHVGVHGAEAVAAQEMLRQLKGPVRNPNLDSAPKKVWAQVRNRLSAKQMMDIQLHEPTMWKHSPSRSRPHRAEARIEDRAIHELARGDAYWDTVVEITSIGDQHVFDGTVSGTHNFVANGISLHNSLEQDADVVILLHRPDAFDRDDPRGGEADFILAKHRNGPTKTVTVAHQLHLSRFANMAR

[5] = target: T3, Mannose-6-phosphate isomerase (Homo sapiens, UniProt P34949); test: phosphomannose isomerase inhibition – biochemical, fluorescence intensity, confirmation (AID 1535)
T3 sequence (P34949 whole entry): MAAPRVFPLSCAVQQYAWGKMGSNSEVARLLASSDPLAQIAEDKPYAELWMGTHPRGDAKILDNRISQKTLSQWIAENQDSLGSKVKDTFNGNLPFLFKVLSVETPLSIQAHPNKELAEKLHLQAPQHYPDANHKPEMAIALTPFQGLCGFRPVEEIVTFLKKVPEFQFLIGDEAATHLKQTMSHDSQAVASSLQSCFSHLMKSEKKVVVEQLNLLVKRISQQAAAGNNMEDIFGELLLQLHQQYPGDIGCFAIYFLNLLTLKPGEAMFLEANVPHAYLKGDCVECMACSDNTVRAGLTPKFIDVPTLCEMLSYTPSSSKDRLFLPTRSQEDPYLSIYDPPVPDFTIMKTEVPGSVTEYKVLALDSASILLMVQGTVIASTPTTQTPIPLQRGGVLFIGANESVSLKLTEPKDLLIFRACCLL

[6] = target: T3, Mannose-6-phosphate isomerase; test: Confirmation of compounds inhibiting phosphomannose isomerase (PMI) via a fluorescence intensity assay using a high concentration of mannose 6-phosphate. [Related pubchem assays (depositor defined):AID1209, AID1220, AID1545, AID1553, AID1620]
[7] = target: Alkaline phosphatase, placental type (Homo sapiens, UniProt P05187); test: human placental alkaline phosphatase inhibition – biochemical, luminescence, confirmation (AID 1512); type: functional
[8] = target: Heat shock protein HSP 90-alpha (Homo sapiens, UniProt P07900); type: functional, organism-based
[9] = target: NACHT, LRR and PYD domains-containing protein 1 (Homo sapiens, UniProt Q9C000); test: NALP1 inhibitors in yeast, dose response, luminescent (AID 488860); type: functional
Saccharomyces cerevisiae = test: S. cerevisiae Caspase-1/ASC signal blockers IC50, NALP1 inhibitor project selectivity test (AID 488863); type: functional, organism-based
[10] = Luminescence Cell-Based Dose Retest to Confirm Inhibitors of Cancer Stem Cells. [Related pubchem assays (depositor defined):AID2717, AID2721]; type: functional; settings: Homo sapiens
Beta-galactosidase = Beta-galactosidase (Escherichia coli, UniProt Q8VNN2); test: detection-enzyme interference by beta-gal modulators – biochemical, E. coli enzyme, set 3, artefact control for CCR6 antagonist project, dose response (AID 504712); type: functional
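Throughout, for CC50: cells exposed to compound for 72 hours before luminescence readout.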

Sequence of Melanocortin receptor 4 (P32245 whole entry): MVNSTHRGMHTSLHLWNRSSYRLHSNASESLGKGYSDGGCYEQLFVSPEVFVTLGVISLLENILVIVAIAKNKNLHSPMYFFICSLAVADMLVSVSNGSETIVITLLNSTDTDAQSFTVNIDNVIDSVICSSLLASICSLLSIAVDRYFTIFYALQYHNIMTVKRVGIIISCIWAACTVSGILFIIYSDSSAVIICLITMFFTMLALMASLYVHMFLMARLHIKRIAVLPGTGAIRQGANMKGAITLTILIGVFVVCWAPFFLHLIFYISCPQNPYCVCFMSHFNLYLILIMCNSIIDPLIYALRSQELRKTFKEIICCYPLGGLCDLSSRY
Sequence of Beta-galactosidase (Q8VNN2 whole entry): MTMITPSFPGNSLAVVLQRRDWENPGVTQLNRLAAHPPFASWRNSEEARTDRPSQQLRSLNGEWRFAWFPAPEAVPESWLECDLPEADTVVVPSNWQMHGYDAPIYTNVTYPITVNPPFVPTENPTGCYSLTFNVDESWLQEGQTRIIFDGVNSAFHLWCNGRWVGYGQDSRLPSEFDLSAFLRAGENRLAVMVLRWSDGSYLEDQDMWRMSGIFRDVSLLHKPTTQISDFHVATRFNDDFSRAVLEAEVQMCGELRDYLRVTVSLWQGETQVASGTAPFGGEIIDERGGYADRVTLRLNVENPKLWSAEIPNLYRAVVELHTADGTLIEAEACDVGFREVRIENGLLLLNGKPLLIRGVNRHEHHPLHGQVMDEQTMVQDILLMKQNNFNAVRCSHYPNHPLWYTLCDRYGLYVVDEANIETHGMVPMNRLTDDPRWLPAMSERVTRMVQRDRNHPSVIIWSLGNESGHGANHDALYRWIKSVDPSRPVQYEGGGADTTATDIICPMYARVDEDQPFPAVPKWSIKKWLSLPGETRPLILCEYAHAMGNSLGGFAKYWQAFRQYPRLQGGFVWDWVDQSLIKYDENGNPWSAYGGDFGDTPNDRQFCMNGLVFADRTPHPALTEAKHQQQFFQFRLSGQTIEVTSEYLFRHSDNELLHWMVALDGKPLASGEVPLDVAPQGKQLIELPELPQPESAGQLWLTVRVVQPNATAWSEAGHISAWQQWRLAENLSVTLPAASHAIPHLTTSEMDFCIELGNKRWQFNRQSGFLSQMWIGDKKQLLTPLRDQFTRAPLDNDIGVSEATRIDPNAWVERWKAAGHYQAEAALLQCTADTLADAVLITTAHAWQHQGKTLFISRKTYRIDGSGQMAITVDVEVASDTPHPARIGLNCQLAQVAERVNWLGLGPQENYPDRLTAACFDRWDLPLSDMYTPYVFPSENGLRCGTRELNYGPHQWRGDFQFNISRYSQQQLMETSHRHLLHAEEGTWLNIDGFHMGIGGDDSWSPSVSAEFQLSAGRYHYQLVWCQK
Sequence of Coagulation factor XII (P00748 20-372 limits assumed): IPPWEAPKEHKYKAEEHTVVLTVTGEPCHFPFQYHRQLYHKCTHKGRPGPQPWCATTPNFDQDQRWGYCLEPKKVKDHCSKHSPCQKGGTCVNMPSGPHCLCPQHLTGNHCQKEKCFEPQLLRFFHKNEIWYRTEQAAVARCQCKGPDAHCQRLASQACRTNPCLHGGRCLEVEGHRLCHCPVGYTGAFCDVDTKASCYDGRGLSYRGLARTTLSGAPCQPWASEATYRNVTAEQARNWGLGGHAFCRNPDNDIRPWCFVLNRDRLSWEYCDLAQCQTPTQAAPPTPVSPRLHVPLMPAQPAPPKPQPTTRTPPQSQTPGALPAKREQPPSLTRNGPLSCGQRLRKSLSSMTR
Sequence of Coagulation factor XII (P00748 373-615 limits assumed): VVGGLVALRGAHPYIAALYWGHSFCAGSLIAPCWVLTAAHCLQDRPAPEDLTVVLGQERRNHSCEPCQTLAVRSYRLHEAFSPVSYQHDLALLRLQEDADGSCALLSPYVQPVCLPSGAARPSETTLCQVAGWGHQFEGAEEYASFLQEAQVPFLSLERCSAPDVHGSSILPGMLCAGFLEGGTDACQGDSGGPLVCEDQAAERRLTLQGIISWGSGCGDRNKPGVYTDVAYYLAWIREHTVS
Sequence of NACHT, LRR and PYD domains-containing protein 1 (Q9C000 1-1212 limits assumed): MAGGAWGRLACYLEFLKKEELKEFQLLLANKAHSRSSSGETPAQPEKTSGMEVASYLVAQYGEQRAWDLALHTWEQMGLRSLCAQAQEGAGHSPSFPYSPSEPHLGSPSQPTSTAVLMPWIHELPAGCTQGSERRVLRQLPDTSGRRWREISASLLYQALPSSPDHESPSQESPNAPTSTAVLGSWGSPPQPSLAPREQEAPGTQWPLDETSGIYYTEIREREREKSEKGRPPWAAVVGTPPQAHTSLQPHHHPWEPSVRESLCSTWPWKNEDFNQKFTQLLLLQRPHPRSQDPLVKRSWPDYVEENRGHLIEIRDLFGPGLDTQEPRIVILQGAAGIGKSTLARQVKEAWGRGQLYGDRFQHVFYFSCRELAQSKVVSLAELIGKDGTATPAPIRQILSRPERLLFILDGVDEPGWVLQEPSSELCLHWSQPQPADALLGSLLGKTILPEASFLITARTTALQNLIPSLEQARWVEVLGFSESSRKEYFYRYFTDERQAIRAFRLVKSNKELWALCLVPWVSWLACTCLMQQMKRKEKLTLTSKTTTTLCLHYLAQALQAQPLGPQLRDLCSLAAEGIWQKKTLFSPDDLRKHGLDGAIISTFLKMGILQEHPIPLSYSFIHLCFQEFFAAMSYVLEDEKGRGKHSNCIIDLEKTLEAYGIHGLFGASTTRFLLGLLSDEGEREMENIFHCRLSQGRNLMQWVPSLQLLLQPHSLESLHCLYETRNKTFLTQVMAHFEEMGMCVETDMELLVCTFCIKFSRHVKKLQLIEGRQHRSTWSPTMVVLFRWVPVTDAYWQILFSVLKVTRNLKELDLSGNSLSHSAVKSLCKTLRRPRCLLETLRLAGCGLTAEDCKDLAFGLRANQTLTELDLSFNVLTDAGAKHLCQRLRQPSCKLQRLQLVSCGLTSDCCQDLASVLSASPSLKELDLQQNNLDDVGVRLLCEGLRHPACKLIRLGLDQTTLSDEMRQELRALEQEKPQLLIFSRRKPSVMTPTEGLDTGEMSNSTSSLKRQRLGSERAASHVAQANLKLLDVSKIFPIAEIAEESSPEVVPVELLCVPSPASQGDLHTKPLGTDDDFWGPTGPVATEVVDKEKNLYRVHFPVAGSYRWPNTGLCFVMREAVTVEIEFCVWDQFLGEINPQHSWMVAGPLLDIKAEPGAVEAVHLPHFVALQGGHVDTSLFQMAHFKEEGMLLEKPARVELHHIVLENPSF
Sequence of NACHT, LRR and PYD domains-containing protein 1 (Q9C000 1213-1473 limits assumed): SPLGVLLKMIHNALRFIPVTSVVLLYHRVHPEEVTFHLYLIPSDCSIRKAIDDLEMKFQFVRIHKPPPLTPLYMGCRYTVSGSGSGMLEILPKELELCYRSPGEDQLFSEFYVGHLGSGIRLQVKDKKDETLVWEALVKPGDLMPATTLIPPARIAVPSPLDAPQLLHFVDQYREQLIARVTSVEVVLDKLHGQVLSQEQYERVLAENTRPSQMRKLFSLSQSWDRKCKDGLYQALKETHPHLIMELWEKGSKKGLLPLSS
Sequence of Alkaline phosphatase, placental type (P05187 whole entry): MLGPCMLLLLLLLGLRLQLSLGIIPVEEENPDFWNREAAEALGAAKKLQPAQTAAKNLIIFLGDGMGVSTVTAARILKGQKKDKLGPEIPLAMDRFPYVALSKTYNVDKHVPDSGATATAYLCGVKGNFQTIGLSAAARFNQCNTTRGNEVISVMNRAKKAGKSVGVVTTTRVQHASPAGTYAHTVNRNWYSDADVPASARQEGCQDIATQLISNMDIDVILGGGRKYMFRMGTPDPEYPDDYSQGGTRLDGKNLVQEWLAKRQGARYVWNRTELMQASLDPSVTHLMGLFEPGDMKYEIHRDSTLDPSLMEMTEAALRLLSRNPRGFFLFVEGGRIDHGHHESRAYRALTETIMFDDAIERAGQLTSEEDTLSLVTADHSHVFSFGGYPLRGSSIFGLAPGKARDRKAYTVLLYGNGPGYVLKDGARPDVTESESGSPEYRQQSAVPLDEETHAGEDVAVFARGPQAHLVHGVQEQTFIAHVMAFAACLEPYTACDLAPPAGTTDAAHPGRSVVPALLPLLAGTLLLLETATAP
Sequence of DNA damage-inducible transcript 3 protein (P35639 whole entry): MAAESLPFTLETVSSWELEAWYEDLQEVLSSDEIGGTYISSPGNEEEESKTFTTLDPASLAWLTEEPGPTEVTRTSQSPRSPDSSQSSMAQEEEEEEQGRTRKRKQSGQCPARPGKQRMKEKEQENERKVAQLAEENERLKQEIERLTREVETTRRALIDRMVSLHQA

CSc1nc(-c2ccccc2)nc(-c2ccccc2)n1
IC50 (MDA-MB-435): > 10 µM (inactive) | IC50 (cells): > 10 µM (inactive)

CC(C)(C)C1C/C(=C/c2ccco2)C(=O)/C(=C/c2ccco2)C1 (configuration not stated)
Absolute IC50 (CHOP) [1]: < 10 µM

Cc1cc(=O)oc2cc(OC(=O)CCN3C(=O)c4ccccc4C3=O)ccc12
IC50 (Coagulation factor XII): > 50 µM (inactive)

COc1cc(/C=C/C(=O)NC(=O)c2ccccc2O)ccc1OC(C)=O
IC50 [2]: > 150 µM (active)

Cc1ccc(Sc2ccc(NC(=O)CCl)cc2)cc1C
EC50 (Melanocortin receptor 4): > 89.2 µM (inactive) | CC50 [3]: 7.87 µM (active) | EC50 (Protein RecA): 0.716 µM (active) | AC50 [4]: 2.51 µM (active)

CCN1C(=O)C2(NNc3ccccc3O2)c2ccccc21 (configuration not stated)
IC50 [5]: > 100 µM (inactive) | IC50 [6]: > 100 µM (inactive) | IC50 [7]: > 100 µM (inactive)

Cc1cc(N2C(=O)C=CC2=O)c([N+](=O)[O-])cc1C
AC50 [8]: 1.07 µM (active) | IC50 [9]: 17.7 µM (active) | IC50 (Saccharomyces cerevisiae): 23.9 µM (active) | AC50 [10]: 4.18 µM (active) | IC50 (Beta-galactosidase): > 66.6 µM (inactive)
